Here are results for 31 compounds from patent US20240383901A1, “SUBSTITUTED PYRROLO[2,3-D]PYRIMIDINES, THEIR PREPARATION AND THEIR THERAPEUTIC APPLICATION” (SANOFI, priority 2021, published 2024).

The target of assay [1] is T1, full-length LRRK2 wild type (Homo sapiens, UniProt Q5S007).
T1 construct: DYDDDDK tagged full-length LRRK2 wild type is used
Put plainly: LRRK2 WT assay (Assay A, Lanthascreen TR-FRET, 500 uM ATP). The format is biochemical. To be noted: Assay A (values without *). As to the method: (§1) The potency of compounds was evaluated in vitro using the Lanthascreen® technology (ThermoFisher Scientific).
(§2) In a typical experiment, the reaction assay buffer contains 50 mM Tris pH8.2, 1 mM EGTA, 2.5 mM MgCl2, 0.05% Triton X100, 0.15% BSA and 1 mM DTT. The detection of the assay is performed using 1 nM Terbium labeled anti-phospho-LRRKtide (ThermoFisher Scientific) diluted in a TR-FRET buffer (ThermoFisher Scientific).
(§3) The experimental procedure was performed with Greiner small volume® 384-well. […] The working solution of compounds was prepared in a separate Greiner microplate.
(§4) The kinase reaction was initiated by addition of the ATP/LRRKtide substrate mix diluted in the reaction assay buffer. The reaction mix was incubated for at least 10 minutes at room temperature (initial velocity conditions). Reaction was stopped by addition of Terbium labeled anti-phospho-LRRKtide diluted into the detection buffer supplemented with EDTA (ThermoFisher Scientific). Plates are incubated for at least 30 minutes at room temperature and read on an Envision™ multimode plate reader (PerkinElmer) with LanthaScreen™. The TR-FRET 520:495 nm emission ratio was calculated and used to determine the IC50 value from a dose response curve fit to the 4-parameter logistic equation. The activity with respect to LRRK2 kinase in this test is given by the concentration which inhibits 50% of the LRRK2 activity (or IC50) in nM.
In general terms: Time-resolved FRET reads energy transfer from a long-lived donor to a nearby acceptor.

The next assay concerns the target T2, full-length LRRK2 G2019S (Homo sapiens, UniProt Q5S007, G2019S).
T2 construct: DYKDDDDK (FLAG)
Put plainly: LRRK2-G2019S kinase activity assay (Lanthascreen TR-FRET). It counts as biochemical. Particulars: 1.1 mM ATP. As to the method:
as §1, §2, §3, §4

T2 sequence (Q5S007 whole entry G2019S): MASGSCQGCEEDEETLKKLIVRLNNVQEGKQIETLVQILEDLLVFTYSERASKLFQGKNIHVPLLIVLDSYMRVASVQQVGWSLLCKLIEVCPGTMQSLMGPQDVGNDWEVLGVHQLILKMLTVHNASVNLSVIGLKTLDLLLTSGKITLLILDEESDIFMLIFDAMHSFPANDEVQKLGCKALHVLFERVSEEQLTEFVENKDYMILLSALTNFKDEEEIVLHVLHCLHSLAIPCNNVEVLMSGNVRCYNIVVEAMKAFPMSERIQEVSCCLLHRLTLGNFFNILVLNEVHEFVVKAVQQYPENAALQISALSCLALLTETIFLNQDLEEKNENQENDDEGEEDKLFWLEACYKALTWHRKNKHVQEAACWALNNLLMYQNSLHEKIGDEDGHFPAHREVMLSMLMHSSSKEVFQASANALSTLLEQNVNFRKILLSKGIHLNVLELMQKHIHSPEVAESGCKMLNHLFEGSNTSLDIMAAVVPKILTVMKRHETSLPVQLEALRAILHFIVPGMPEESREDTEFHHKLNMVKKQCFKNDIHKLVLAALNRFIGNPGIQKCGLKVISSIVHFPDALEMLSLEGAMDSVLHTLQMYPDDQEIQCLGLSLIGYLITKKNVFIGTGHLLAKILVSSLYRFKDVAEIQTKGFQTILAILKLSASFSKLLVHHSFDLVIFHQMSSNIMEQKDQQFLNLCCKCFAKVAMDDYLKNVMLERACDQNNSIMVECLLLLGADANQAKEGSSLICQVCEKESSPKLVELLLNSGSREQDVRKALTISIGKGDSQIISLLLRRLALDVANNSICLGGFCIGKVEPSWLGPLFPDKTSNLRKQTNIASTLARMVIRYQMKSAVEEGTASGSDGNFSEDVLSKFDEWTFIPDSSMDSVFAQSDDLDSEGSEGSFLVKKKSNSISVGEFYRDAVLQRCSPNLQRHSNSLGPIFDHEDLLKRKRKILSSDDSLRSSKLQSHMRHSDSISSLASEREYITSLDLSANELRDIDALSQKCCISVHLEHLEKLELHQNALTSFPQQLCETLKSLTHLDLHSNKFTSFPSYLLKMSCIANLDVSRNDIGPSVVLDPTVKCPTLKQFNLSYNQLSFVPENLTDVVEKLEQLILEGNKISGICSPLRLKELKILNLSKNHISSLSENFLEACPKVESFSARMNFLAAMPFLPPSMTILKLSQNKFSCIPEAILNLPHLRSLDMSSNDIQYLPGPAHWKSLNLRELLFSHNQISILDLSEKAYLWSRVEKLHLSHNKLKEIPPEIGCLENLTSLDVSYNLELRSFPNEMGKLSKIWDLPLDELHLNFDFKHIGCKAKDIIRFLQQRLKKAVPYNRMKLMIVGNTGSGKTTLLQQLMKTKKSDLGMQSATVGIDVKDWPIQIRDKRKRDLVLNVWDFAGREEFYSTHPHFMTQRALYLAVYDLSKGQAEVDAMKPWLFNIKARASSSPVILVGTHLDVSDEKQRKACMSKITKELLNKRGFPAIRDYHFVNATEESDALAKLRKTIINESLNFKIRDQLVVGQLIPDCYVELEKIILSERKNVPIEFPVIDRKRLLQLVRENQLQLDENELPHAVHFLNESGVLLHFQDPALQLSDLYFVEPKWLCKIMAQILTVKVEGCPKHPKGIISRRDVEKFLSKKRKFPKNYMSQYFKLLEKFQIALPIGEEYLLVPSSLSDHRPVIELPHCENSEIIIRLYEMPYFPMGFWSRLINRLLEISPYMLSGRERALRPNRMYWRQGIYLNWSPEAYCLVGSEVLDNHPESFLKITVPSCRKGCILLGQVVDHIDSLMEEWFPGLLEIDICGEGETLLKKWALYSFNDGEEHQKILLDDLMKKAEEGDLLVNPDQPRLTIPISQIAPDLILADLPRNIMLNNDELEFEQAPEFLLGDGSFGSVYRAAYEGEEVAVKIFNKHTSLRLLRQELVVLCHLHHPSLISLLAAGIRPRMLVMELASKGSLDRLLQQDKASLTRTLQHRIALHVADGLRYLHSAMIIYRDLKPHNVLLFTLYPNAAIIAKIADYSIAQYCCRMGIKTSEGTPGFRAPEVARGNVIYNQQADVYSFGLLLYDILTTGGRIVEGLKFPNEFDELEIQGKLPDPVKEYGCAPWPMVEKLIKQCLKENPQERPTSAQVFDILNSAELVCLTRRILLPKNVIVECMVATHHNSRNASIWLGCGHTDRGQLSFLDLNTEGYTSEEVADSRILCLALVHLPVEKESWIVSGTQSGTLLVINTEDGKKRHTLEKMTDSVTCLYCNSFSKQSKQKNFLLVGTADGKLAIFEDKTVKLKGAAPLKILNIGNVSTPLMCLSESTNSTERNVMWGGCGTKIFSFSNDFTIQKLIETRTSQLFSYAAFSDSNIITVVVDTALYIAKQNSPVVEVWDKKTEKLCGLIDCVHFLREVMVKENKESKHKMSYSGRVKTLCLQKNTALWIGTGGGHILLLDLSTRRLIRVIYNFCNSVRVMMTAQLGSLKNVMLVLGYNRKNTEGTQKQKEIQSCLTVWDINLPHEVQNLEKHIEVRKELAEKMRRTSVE
T1 sequence (Q5S007 whole entry): as the sequence (Q5S007 whole entry G2019S) above, with S2019G counted along it

With `CC(C)Oc1nn(C)cc1Nc1ncc2cc(C#N)n([C@@H]3CO[C@H]3C)c2n1` (single isomer, unassigned) [Example 78, 7-[(trans)-2-methyloxetan-3-yl]-2-[(1-methyl-3-propan-2-yloxypyrazol-4-yl)amino]pyrrolo[2,3-d]pyrimidine-6-carbonitrile], the IC50 (in general, the concentration that inhibits the measured activity by half) in assay [1] worked out at 79 nM; at full-length LRRK2 G2019S it was 64 nM.
The matching figures for `CC(C)Oc1nn(C)cc1Nc1ncc2cc(C#N)n([C@@H]3CO[C@H]3C)c2n1` (single isomer, unassigned) [Example 79, 7-[(trans)-2-methyloxetan-3-yl]-2-[(1-methyl-3-propan-2-yloxypyrazol-4-yl)amino]pyrrolo[2,3-d]pyrimidine-6-carbonitrile]: 9 nM and 6 nM.
The matching figures for `COC[C@H](C)n1c(C#N)cc2cnc(Nc3cn(C)nc3O[C@@H]3CO[C@H]3C)nc21` (single isomer, unassigned) [Example 88]: 20 nM and 12 nM.
`[2H]C([2H])([2H])n1cc(Nc2ncc3cc(C#N)n([C@@H](C)COC)c3n2)c(O[C@@H]2CO[C@H]2C)n1` (single isomer, unassigned) [Example 90]: the IC50 in assay [1] turned out to be 16 nM; on full-length LRRK2 G2019S, 8 nM.
`[2H]C([2H])([2H])n1cc(Nc2ncc3cc(C#N)n([C@@H](C)COC)c3n2)c(OC2COC2(C)C)n1` (single isomer, unassigned) [Example 99]: the IC50 in assay [1] came out at 34 nM; on full-length LRRK2 G2019S it was 36 nM.
Regarding `[2H]C([2H])([2H])n1cc(Nc2ncc3cc(C#N)n([C@@H](C)COC)c3n2)c(OC2COC2(C)C)n1` (single isomer, unassigned) [Example 100], the results for the IC50 (in assay [1]; on full-length LRRK2 G2019S) were 40 nM and 39 nM, respectively.
With `[2H]C([2H])([2H])n1cc(Nc2ncc3cc(C#N)n([C@@H](C)COC)c3n2)c(OC2CCOC2)n1` (single isomer, unassigned) [Example 101], the IC50 was 40 nM in assay [1] and 34 nM against full-length LRRK2 G2019S.
As for `[2H]C([2H])([2H])n1cc(Nc2ncc3cc(C#N)n([C@@H](C)COC)c3n2)c(OC2CCOC2)n1` (single isomer, unassigned) [Example 102], the IC50 in assay [1] stood at 39 nM; against full-length LRRK2 G2019S it was 41 nM.
The matching figures for `[2H]C([2H])([2H])n1cc(Nc2ncc3cc(C#N)n([C@H]4COC[C@@H]4C)c3n2)c(OC2COC(C)(C)C2)n1` (single isomer, unassigned) [Example 109]: 26 nM and 38 nM.
On to `[2H]C([2H])([2H])n1cc(Nc2ncc3cc(C#N)n([C@H]4COC[C@@H]4C)c3n2)c(OC2COC(C)(C)C2)n1` (single isomer, unassigned) [Example 110], for which the figures for the IC50 (in assay [1]; against full-length LRRK2 G2019S) were 4 nM and 8 nM, respectively.
`[2H]C([2H])([2H])n1cc(Nc2ncc3cc(C#N)n([C@H]4COC[C@@H]4C)c3n2)c(OC2CCOC2)n1` (single isomer, unassigned) [Example 111]: the IC50 in assay [1] was found to be 17 nM; on full-length LRRK2 G2019S, 22 nM.
As to `[2H]C([2H])([2H])n1cc(Nc2ncc3cc(C#N)n([C@H]4COC[C@@H]4C)c3n2)c(OC2CCOC2)n1` (single isomer, unassigned) [Example 112], the IC50 in assay [1] stood at 13 nM; at full-length LRRK2 G2019S, 16 nM.
As for `[2H]C([2H])([2H])n1cc(Nc2ncc3cc(C#N)n([C@H]4COC[C@@H]4C)c3n2)c(O[C@@H]2COC[C@H]2O)n1` (single isomer, unassigned) [Example 114], the results for the IC50 (in assay [1]; against full-length LRRK2 G2019S) were 20 nM and 28 nM, respectively.
Consider `[2H]C([2H])([2H])n1cc(Nc2ncc3cc(C#N)n([C@H]4COC[C@@H]4C)c3n2)c(O[C@@H]2COC[C@H]2O)n1` (single isomer, unassigned) [Example 115], for which the IC50 is 14 nM in assay [1] and 17 nM against full-length LRRK2 G2019S.
Regarding `[2H]C([2H])([2H])n1cc(Nc2ncc3cc(C#N)n([C@@H](C)COC)c3n2)c(O[C@@H]2COC[C@H]2O)n1` (single isomer, unassigned) [Example 116], the IC50 in assay [1] amounted to 43 nM; on full-length LRRK2 G2019S it was 50 nM.
Regarding `[2H]C([2H])([2H])n1cc(Nc2ncc3cc(C#N)n([C@@H](C)COC)c3n2)c(O[C@@H]2COC[C@H]2O)n1` (single isomer, unassigned) [Example 117], the figures for the half-maximal inhibitory concentration (IC50) (in assay [1]; against full-length LRRK2 G2019S) were 34 nM and 50 nM, respectively.
The matching figures for `[2H]C([2H])([2H])n1cc(Nc2ncc3cc(C#N)n([C@H]4COC[C@@H]4C)c3n2)c(OC2COC2(C)C)n1` (single isomer, unassigned) [Example 118]: 14 nM and 29 nM.
As for `[2H]C([2H])([2H])n1cc(Nc2ncc3cc(C#N)n([C@H]4COC[C@@H]4C)c3n2)c(OC2COC2(C)C)n1` (single isomer, unassigned) [Example 119], the IC50 in assay [1] is 12 nM; against full-length LRRK2 G2019S, 17 nM.
With `[2H]C([2H])([2H])n1cc(Nc2ncc3cc(C#N)n(C4CCOCC4)c3n2)c(OC2COC2(C)C)n1` (single isomer, unassigned) [Example 120, 2-((3-((2,2-dimethyloxetan-3-yl)oxy)-1-(methyl-d3)-1 H-pyrazol-4-yl)amino)-7-(tetrahydro-2H-pyran-4-yl)-7H-pyrrolo[2,3-d]pyrimidine-6-carbonitrile], the IC50 in assay [1] is 173 nM; at full-length LRRK2 G2019S, 179 nM.
As for `[2H]C([2H])([2H])n1cc(Nc2ncc3cc(C#N)n(C4CCOCC4)c3n2)c(OC2COC2(C)C)n1` (single isomer, unassigned) [Example 121, 2-((3-((2,2-dimethyloxetan-3-yl)oxy)-1-(methyl-d3)-1 H-pyrazol-4-yl)amino)-7-(tetrahydro-2H-pyran-4-yl)-7H-pyrrolo[2,3-d]pyrimidine-6-carbonitrile], the IC50 in assay [1] came to 133 nM; against full-length LRRK2 G2019S it was 181 nM.
`COCC(C)n1cc(Nc2ncc3cc(C#N)n(C4CCOCC4)c3n2)c(OC2CC2)n1` (single isomer, unassigned) [Example 126, 2-((3-cyclopropoxy-1-(1-methoxypropan-2-yl)-1 H-pyrazol-4-yl)amino)-7-(tetrahydro-2H-pyran-4-yl)-7H-pyrrolo[2,3-d]pyrimidine-6-carbonitrile]: the IC50 in assay [1] is 77 nM; against full-length LRRK2 G2019S, 83 nM.
The matching figures for `COCC(C)n1cc(Nc2ncc3cc(C#N)n(C4CCOCC4)c3n2)c(OC2CC2)n1` (single isomer, unassigned) [Example 127, 2-((3-cyclopropoxy-1-(1-methoxypropan-2-yl)-1 H-pyrazol-4-yl)amino)-7-(tetrahydro-2H-pyran-4-yl)-7H-pyrrolo[2,3-d]pyrimidine-6-carbonitrile]: 144 nM and 183 nM.
For `COCC(C)n1cc(Nc2ncc3cc(C#N)n([C@@H](C)COC)c3n2)c(OC2COC2)n1` (single isomer, unassigned) [Example 129], the IC50 in assay [1] is 41 nM; at full-length LRRK2 G2019S it was 37 nM.
As to `COCC(C)n1cc(Nc2ncc3cc(C#N)n([C@@H](C)COC)c3n2)c(OC2COC2)n1` (single isomer, unassigned) [Example 130], the IC50 in assay [1] came to 61 nM; at full-length LRRK2 G2019S, 57 nM.
Turning to `[2H]C([2H])([2H])n1cc(Nc2ncc3cc(C#N)n([C@@H](C)COC)c3n2)c(OC2C(C)(C)C(O)C2(C)C)n1` (single isomer, unassigned) [Example 132], the IC50 in assay [1] was 36 nM; against full-length LRRK2 G2019S, 32 nM.
As for `[2H]C([2H])([2H])n1cc(Nc2ncc3cc(C#N)n([C@@H](C)COC)c3n2)c(OC2C(C)(C)C(O)C2(C)C)n1` (single isomer, unassigned) [Example 133], the IC50 in assay [1] is 13 nM; against full-length LRRK2 G2019S it was 14 nM.
On to `[2H]C([2H])([2H])n1cc(Nc2ncc3cc(C#N)n([C@@H](C)COC)c3n2)c(OC2CC(O)C2(C)C)n1` (single isomer, unassigned) [Example 134], for which the IC50 in assay [1] was 3 nM; against full-length LRRK2 G2019S it was 5 nM.
In the case of `[2H]C([2H])([2H])n1cc(Nc2ncc3cc(C#N)n([C@@H](C)COC)c3n2)c(OC2CC(O)C2(C)C)n1` (single isomer, unassigned) [Example 135], the IC50 came to 43 nM in assay [1] and 39 nM on full-length LRRK2 G2019S.
In the same order, the values of `[2H]C([2H])([2H])n1cc(Nc2ncc3cc(C#N)n([C@@H](C)COC)c3n2)c(O[C@@H]2COC[C@@H]2O)n1` (single isomer, unassigned) [Example 136] are 95 nM and 81 nM.
On to `[2H]C([2H])([2H])n1cc(Nc2ncc3cc(C#N)n(C4COCC4C)c3n2)c(OC2CCC2(C)O)n1` (single isomer, unassigned) [Example 141], for which the IC50 in assay [1] came out at 44 nM; against full-length LRRK2 G2019S, 54 nM.
Take `C[C@@H]1COCC[C@H]1n1c(C#N)cc2cnc(Nc3cn(CCO)nc3OC3COC3)nc21` (single isomer, unassigned) [Example 160, 2-((1-(2-hydroxyethyl)-3-(oxetan-3-yloxy)-1 H-pyrazol-4-yl)amino)-7-(trans-3-methyltetrahydro-2H-pyran-4-yl)-7H-pyrrolo[2,3-d]pyrimidine-6-carbonitrile]: the IC50 in assay [1] came to 325 nM; at full-length LRRK2 G2019S, 258 nM.
